The values below come from patent EP4342530A1, “SORTILIN MODULATORS” (Insusense ApS, priority 2022, dated 2024).

SMILES strings stand for the structures. Like-named read-outs stand apart in the source and are kept apart here.

Data set [1] is described as follows: Kpuu determination in the dog (plasma and CSF time course after oral capsule). It is filed as in vivo, male beagle dog. The protocol:
Example 3 was loaded as a solid, Batch No. C2210502, into enteric coated capsule (0#). Fasted male beagle dog was dosed with pentagastrin (0.25 mg/mL and 0.024 mL/kg) at 6 µg/kg by intramuscular (IM) injection at approximately 30 minutes prior to administration of test compound. Capsule containing 20 mg/kg of Example 3 were administered orally and plasma and CSF samples were taken pre-dose, 0.5, 1, 2, 4, 8 12 and 24 hours post dosing and analysed for concentration of Example 3 in analogous fashion to the study above.
Kpuu = AUC0−infcsf/(AUC0−infplasma×(%Fuplasma/100)) [formula] Kpuu = 6414/(23816×(55,5/100)) = 6414/13218 = 0.49 [formula]

A short description of data set [2]: Brain homogenate binding by rapid equilibrium dialysis, rat brain. As to conditions: pH 7.4, 37 °C, dilution factor 5, read-out: Unbound (Fu, %). It is filed as in vitro ADME. The protocol:
Plasma protein binding and brain homogenate binding for study compounds in mouse, dog, and rat by rapid equilibrium dialysis
In practice, unbound fractions in plasma and brain tissue were assessed using rapid equilibrium dialysis in vitro. Separately a pharmacokinetic study was run in vivo whereby a dose of the compound of interest was given at T=0 hours and at subsequent timepoints (eg 0.5, 1 and 4 hours) plasma and separately brain samples were analysed for total concentration of the compound of interest. These total concentrations could then be adjusted with the unbound fraction to give the unbound concentrations in the plasma and brain.
The test compounds were incubated in plasma and brain homogenate from the relevant species at 37 °C in RED device with inserts (8K MWCO, Thermo scientific) for 4 hours at 5 µM in triplicates. 350 µL of 150 mM phosphate buffered saline (PBS, pH 7.4) was used as the receiver side solutions. […] After 10-minute centrifugation at 13 200 rpm, the sample supernatants were analysed with an LC-MS/MS, to obtain the unbound fraction of the test compound (Fub). The unbound fraction was calculated from the peak area ratios obtained for each matrix: Fub = CPBS /Cplasma; [formula] where CPBS and Cplasma are the analyte concentrations in PBS (receiver) and plasma (donor), respectively. […]

Setting [3] is: male, beagle, CSF, 20 mg/kg oral capsule, read-out: CSF concentration.
[4] abbreviates: male, beagle, plasma, 20 mg/kg oral capsule, read-out: Plasma concentration.

Usually AUC(0-inf) stands for total exposure, with the tail of the curve extrapolated. Higher therefore signals high exposure. Regarding `CC(C)(C)CC[C@H](NCc1ccc2c(c1)COCC2)C(=O)O` [Example 3, (S)-2-((isochroman-7-ylmethyl)amino)-5,5-dimethylhexanoic acid], the CSF concentration entry was “BQL” in data set [1] (20 mg/kg oral capsule, 0,5 h); “BQL” in data set [1] (20 mg/kg oral capsule, 1 h); 13,7 ng/mL in data set [1] (20 mg/kg oral capsule, 2 h); 27,7 ng/mL in data set [1] (20 mg/kg oral capsule, 24 h). Besides, the Plasma concentration in data set [1] (20 mg/kg oral capsule, 0,5 h) is recorded as 1,04 ng/mL; in data set [1] (20 mg/kg oral capsule, 1 h) it was 3,20 ng/mL; in data set [1] (20 mg/kg oral capsule, 24 h), 87,1 ng/mL. In addition, the AUC(0-inf) in data set [1] (male, beagle, CSF, 20 mg/kg oral capsule) stood at 6410 ng·h/mL; in data set [1] (male, beagle, Plasma, 20 mg/kg oral capsule), 23800 ng·h/mL. Besides, the concentration at 4 h was determined as 745 ng/mL in data set [1] (setting [3]) and 5350 ng/mL in data set [1] (setting [4]). The concentration at 8 h amounted to 698 ng/mL in data set [1] (setting [3]) and 1400 ng/mL in data set [1] (setting [4]). Further, the values for the concentration at 12 h in data set [1] (setting [3]) and in data set [1] (setting [4]) were 196 ng/mL and 390 ng/mL, respectively. Besides, in data set [1] (male, beagle, plasma, 20 mg/kg oral capsule, 2 h), the concentration at 2 h turned out to be 370 ng/mL. Besides, the fraction unbound at 4 h, 5 µM in data set [2] came to 0.371.
